Data taken from patent US8940766B2, “Methods for preventing and/or treating lysosomal storage disorders” (Amicus Therapeutics, Inc., priority 2009, dated 2015).

Assays:
[1] = target: T1, recombinant human GCase (rhGCase; Cerezyme®) (Homo sapiens, UniProt P04062, R534H); assay: In vitro enzyme inhibition assay of rhGCase with 4-MU-β-D-Glc fluorogenic substrate; assay type: biochemical; settings: pH 5.2; average of three independent experiments
T1 construct: purchased Genzyme Corp
T1 sequence (P04062 40-536 R534H): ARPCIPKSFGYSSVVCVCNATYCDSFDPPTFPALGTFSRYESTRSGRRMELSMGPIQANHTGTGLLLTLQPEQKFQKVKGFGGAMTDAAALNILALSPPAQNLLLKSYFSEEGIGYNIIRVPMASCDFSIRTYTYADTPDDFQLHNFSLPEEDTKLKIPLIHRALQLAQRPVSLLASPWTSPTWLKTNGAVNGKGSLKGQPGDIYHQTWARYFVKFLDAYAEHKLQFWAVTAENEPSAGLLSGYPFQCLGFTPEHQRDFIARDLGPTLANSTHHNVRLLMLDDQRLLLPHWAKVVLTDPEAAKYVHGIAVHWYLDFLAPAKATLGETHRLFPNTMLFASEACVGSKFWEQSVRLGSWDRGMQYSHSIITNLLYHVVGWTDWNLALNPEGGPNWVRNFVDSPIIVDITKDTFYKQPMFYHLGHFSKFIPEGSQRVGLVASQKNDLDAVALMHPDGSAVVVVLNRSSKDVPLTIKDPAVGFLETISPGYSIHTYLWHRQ
Description: The binding affinity (defined here by Ki binding constant) of GCase for small molecule pharmacological chaperones described in this document were empirically determined using enzyme inhibition assays. In brief, the enzyme inhibition assays used monitored the ability of test compound to bind and prevent the hydrolysis of a fluorogenic substrate in a concentration-dependent manner. Specifically, the enzyme activity of recombinant human GCase (rhGCase; Cerezyme®, Genzyme Corp.) was measured using the 4-methylumbelliferyl-β-D-glucopyranoside (4-MU-β-D-Glc) fluorogenic substrate in the absence or in the presence of varying amounts of each test compound. […] The enzyme inhibition assays were performed at both pH 7.0 (endoplasmic reticulum pH) and at pH 5.2 (lysosomal pH) to gain insight into the binding affinity (i.e., potency) of compounds for GCase in the endoplasmic reticulum and lysososome.
Various concentrations of test compounds were prepared in buffer “M” consisting of 50 mM sodium phosphate buffer with 0.25% sodium taurocholate at pH 7.0 and pH 5.2. Enzyme (Cerezyme®, a recombinant form of the human enzyme β-glucocerebrosidase) was also diluted in the same buffer “M” at pH 7.0 and pH 5.2. […] Fluorescence was measured on a plate reader for 1 sec/well using 355 nm excitation and 460 nm emission.

GCase = target: T2, GCase (Mus musculus, UniProt P17439); assay: GCase enhancement in tissues of orally dosed mice; assay type: in vivo, mice (C57BL/6); settings: for GCase increase: nine doses over 2 weeks, 24-hour washout
T2 construct: Liver, spleen, lung, and brain tissues were removed; from tissue; host or cells: brain, spleen, liver, lung of C57BL/6 mice
T2 sequence (P17439 20-515): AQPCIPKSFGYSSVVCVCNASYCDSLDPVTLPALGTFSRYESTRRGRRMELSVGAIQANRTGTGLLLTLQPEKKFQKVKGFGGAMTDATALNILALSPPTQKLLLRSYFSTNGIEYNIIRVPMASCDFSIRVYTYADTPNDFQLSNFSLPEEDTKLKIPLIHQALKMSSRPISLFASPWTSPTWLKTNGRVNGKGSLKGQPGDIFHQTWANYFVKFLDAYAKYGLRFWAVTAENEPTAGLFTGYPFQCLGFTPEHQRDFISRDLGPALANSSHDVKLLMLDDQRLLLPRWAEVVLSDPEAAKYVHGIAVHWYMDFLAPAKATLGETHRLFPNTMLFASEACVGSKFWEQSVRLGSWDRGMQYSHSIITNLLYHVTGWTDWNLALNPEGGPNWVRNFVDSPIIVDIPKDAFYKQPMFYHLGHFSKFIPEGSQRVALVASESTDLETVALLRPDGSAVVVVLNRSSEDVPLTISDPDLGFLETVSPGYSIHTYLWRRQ
Description: The ability of orally administered test compounds (the hydrochloride salt form of Compound A and Compound B) to elevate GCase levels as compared to reference compound, IFG-tartrate, was assessed in mice. […] Seven animals were used per dose. The dosing solutions were prepared in water. Compounds were administered over 2 weeks as follows: week 1, Mon-Fri (On), Sat-Sun (Off); week 2, Mon-Thu (On); necropsy on Friday. Thus, a total of 9 doses (dosing solutions prepared fresh every day) were given to each mouse, with a 24-hour washout between the last dose and necropsy.
Plasma was collected by spinning blood at 2700 g for 10 minutes at 4° C. Liver, spleen, lung, and brain tissues were removed, washed in cold PBS, blotted dry, flash frozen on dry ice, and stored at −80° C. until analysis. GCase levels were measured by homogenizing approximately 50 mg tissue in 500 μL McIlvane (MI) buffer (100 mM sodium citrate, 200 mM sodium phosphate dibasic, 0.25% sodium taurocholate, and 0.1% Triton X-100, pH 5.2) at pH 5.2 for 3-5 seconds on ice with a micro homogenizer. Homogenates were then incubated at room temperature without and with 2.5 mM conduritol-B-epoxide (CBE) for 30 min. Finally, 3.7 mM 4-methylumbeliferryl-β-glucoside (4-MUG) substrate was added and incubated at 37° C. for 60 min. Reactions were stopped by addition of 0.4 M glycine, pH 10.6. Fluorescence was measured on a plate reader for 1 sec/well using 355 nm excitation and 460 nm emission. Total protein was determined in lysates using the MicroBCA kit according to the manufacturer's instructions. A 4-methylumbelliferone (4-MU) standard curve ranging from 1.0 nM to 50 μM was run in parallel for conversion of raw fluorescence data to absolute GCase activity (in the presence and absence of CBE) and expressed as nanomoles of 4-MU released per milligram of protein per hour (nmol/mg protein/hr). GCase levels and protein levels were calculated using Microsoft Excel (Redmond, Wash.) and GraphPad Prism version 4.02.

[2] = mice, nine p.o. doses over 2 weeks, result in words

O[C@@H]1[C@@H](CCl)CNC[C@H]1O [Compound B, (3R,4R,5S)-5-(chloromethyl)piperidine-3,4-diol]
IC50 [1]: 73 ± 9 nM | GCase increase (GCase; brain, 10 mg/kg (free base equivalent) p.o.): 2.3 -fold | GCase increase (GCase; brain, 100 mg/kg (free base equivalent) p.o.): 3.5 -fold | GCase enhancement at lower doses compared to IFG-tartrate (GCase; [2]): unexpectedly greater than that observed with IFG-tartrate even when far lower doses | GCase enhancement in brain, spleen, liver and lung compared to control or IFG-tartrate (GCase; [2]): statistically significant greater GCase enhancement in brain, spleen, liver and lung as compared to mice administered control or IFG-tartrate | GCase increase (GCase; spleen, 10 mg/kg (free base equivalent) p.o.): 1.4 -fold | GCase increase (GCase; spleen, 100 mg/kg (free base equivalent) p.o.): 2.2 -fold
